Measurements published in patent publication US6737383B1, “Herbicidal oxadiazolidines” (priority 1999, dated 2004).

How the values were obtained:
[1] = test system: surinam grass; assay: Test B pre/postemergence surinam grass; format: in vivo, Brachiaria decumbens
Method in brief: (§1)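 Response is a visual 0-to-10 score relative to untreated plants, where 0 means no effect and 10 means complete control, taken twelve to sixteen days after application. Treatments went onto soil at planting and onto foliage of 1- to 4-leaf plants, using a surfactant-containing non-phytotoxic solvent.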

[2] = test system: corn; assay: Test B pre/postemergence corn; format: in vivo, Zea mays
Method in brief: as §1

[3] = test system: purple nutsedge; assay: Test B pre/postemergence purple nutsedge; format: in vivo, Cyperus rotundus
Method in brief: as §1

[4] = test system: wheat; assay: Test B pre/postemergence wheat; format: in vivo, Triticum aestivum; details: Preemergence
Method in brief: as §1

[5] = test system: blackgrass; assay: Test B pre/postemergence blackgrass; format: in vivo, Alopecurus myosuroides
Method in brief: as §1

[6] = test system: velvetleaf; assay: Test B pre/postemergence velvetleaf; format: in vivo, Abutilon theophrasti; details: Preemergence
Method in brief: as §1

[7] = test system: rape; assay: Test B pre/postemergence rape; format: in vivo, Brassica napus
Method in brief: as §1

[8] = test system: crabgrass; assay: Test B pre/postemergence crabgrass; format: in vivo, Digitaria sanguinalis
Method in brief: as §1

[9] = test system: pigweed; assay: Test B pre/postemergence pigweed; format: in vivo, Amaranthus retroflexus
Method in brief: as §1

[10] = test system: duck salad; assay: Test B flood test duck salad; format: in vivo, Heteranthera limosa
Method in brief: (§2)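 Read-out is a visual response score from 0 (no effect) to 10 (complete control), assigned by comparison with untreated controls. Treatment was applied at the 2-leaf stage, and plants stayed in the greenhouse for twelve to sixteen days before scoring.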

[11] = test system: sugar beet; assay: Test B pre/postemergence sugar beet; format: in vivo, Beta vulgaris; details: Preemergence
Method in brief: as §1

[12] = test system: bamyardgrass; assay: Test B flood test barnyardgrass; format: in vivo, Echinochloa crus-galli
Method in brief: as §2

[13] = test system: cocklebur; assay: Test B pre/postemergence cocklebur; format: in vivo, Xanthium strumarium
Method in brief: as §1

[14] = test system: wild oat; assay: Test B pre/postemergence wild oat; format: in vivo, Avena fatua; details: Preemergence
Method in brief: as §1

[15] = test system: rice; assay: Test B flood test rice; format: in vivo, Oryza sativa
Method in brief: as §2

[16] = test system: bedstraw; assay: Test B pre/postemergence bedstraw; format: in vivo, Galium aparine
Method in brief: as §1

[17] = test system: giant foxtail; assay: Test B pre/postemergence giant foxtail; format: in vivo, Setaria faberii
Method in brief: as §1

[18] = test system: soybean; assay: Test B pre/postemergence soybean; format: in vivo, Glycine max; details: Preemergence
Method in brief: as §1

[19] = test system: smallflower flatsedge; assay: Test B flood test smallflower flatsedge; format: in vivo, Cyperus difformis
Method in brief: as §2

[20] = test system: morningglory; assay: Test B pre/postemergence morningglory; format: in vivo, Ipomoea hederacea
Method in brief: as §1

[21] = Preemergence, Rate 31 g/ha, visual rating, scale 0 to 10 (0 no effect, 10 complete control)
[22] = Preemergence, Rate 62 g/ha, scale of 0 to 10 where 0 is no effect and 10 is complete control
[23] = Preemergence, Rate 250 g/ha, scale of 0 to 10 where 0 is no effect and 10 is complete control
[24] = Rate 31 g/ha, Postemergence, scale 0 to 10
[25] = Rate 62 g/ha, Postemergence, scale of 0 to 10 where 0 is no effect and 10 is complete control
[26] = Rate 125 g/ha, Preemergence, scale of 0 to 10 where 0 is no effect and 10 is complete control
[27] = Rate 125 g/ha, Postemergence, scale 0 to 10
[28] = Rate 31 g/ha, visual rating, scale 0 to 10 (0 no effect, 10 complete control)
[29] = Rate 62 g/ha, scale of 0 to 10 where 0 is no effect and 10 is complete control
[30] = Rate 250 g/ha, scale of 0 to 10 where 0 is no effect and 10 is complete control
[31] = Rate 125 g/ha, scale of 0 to 10 where 0 is no effect and 10 is complete control
[32] = Rate 62 g/ha, headed Pre-emergence (flood test species), scale 0 to 10 (0 no effect, 10 complete control)
[33] = Rate 125 g/ha, Pre-emergence, flood test species, scale 0 to 10 where 0 is no effect and 10 is complete control
[34] = Rate 250 g/ha, Pre-emergence, flood-test species, scale 0 to 10, 0 is no effect, 10 is complete control
[35] = Rate 500 g/ha, Pre-emergence, flood test species, scale 0 to 10 (0 no effect, 10 complete control)

C=C(Cn1c(=O)on(C(=O)N(c2ccc(F)cc2)C(C)C)c1=O)C[Si](C)(C)C [Compound 256]
6: Morningglory plant response rating [20, 24]
2: Plant response rating (0 to 10; 0 is no effect, 10 is complete control), Rape ([7]; Rate 250 g/ha, Postemergence) | Crabgrass plant response rating [8, 23] | Crabgrass plant response rating [8, 26]
0: B. signalgrass plant response rating [1, 21] | B. signalgrass plant response rating [1, 22] | B. signalgrass plant response rating [1, 23] | B. signalgrass plant response rating [1, 24] | B. signalgrass plant response rating [1, 25] | B. signalgrass plant response rating ([1]; Rate 125 g/ha, Postemergence, scale 0 (no effect) to 10 (complete control)) | B. signalgrass plant response rating [1, 26] | Plant response rating (0 to 10; 0 is no effect, 10 is complete control), B. signalgrass ([1]; Rate 250 g/ha, Postemergence) | Corn plant response rating [2, 21] | Corn plant response rating [2, 22] | Corn plant response rating [2, 23] | Corn plant response rating [2, 24] | Corn plant response rating [2, 25] | Corn plant response rating [2, 27] | Corn plant response rating [2, 26] | Plant response rating (0 to 10; 0 is no effect, 10 is complete control), Corn ([2]; Rate 250 g/ha, Postemergence) | Nutsedge plant response rating [3, 23] | Nutsedge plant response rating [3, 24] | Plant response rating (0 to 10; 0 is no effect, 10 is complete control), Nutsedge ([3]; Rate 250 g/ha, Postemergence) | Wheat plant response rating [4, 28] | Wheat plant response rating [4, 29] | Wheat plant response rating [4, 30] | Wheat plant response rating [4, 31] | Blackgrass plant response rating [5, 21] | Blackgrass plant response rating [5, 22] | Blackgrass plant response rating [5, 23] | Blackgrass plant response rating [5, 24] | Blackgrass plant response rating [5, 25] | Blackgrass plant response rating [5, 27] | Blackgrass plant response rating [5, 26] | Plant response rating (0 to 10; 0 is no effect, 10 is complete control), Blackgrass ([5]; Rate 250 g/ha, Postemergence) | Velvetleaf plant response rating [6, 28] | Velvetleaf plant response rating [6, 29] | Velvetleaf plant response rating [6, 30] | Velvetleaf plant response rating [6, 31] | Rape plant response rating [7, 21] | Rape plant response rating [7, 22] | Rape plant response rating [7, 23] | Rape plant response rating [7, 24] | Rape plant response rating [7, 26] | Crabgrass plant response rating [8, 21] | Crabgrass plant response rating [8, 22] | Crabgrass plant response rating [8, 24] | Redroot pigweed plant response rating [9, 21] | Redroot pigweed plant response rating [9, 22] | Redroot pigweed plant response rating [9, 23] | Redroot pigweed plant response rating [9, 24] | Redroot pigweed plant response rating [9, 26] | Ducksalad plant response rating [10, 32] | Ducksalad plant response rating [10, 33] | Ducksalad plant response rating [10, 34] | Ducksalad plant response rating [10, 35] | Sugarbeets plant response rating [11, 28] | Sugarbeets plant response rating [11, 29] | Sugarbeets plant response rating [11, 30] | Sugarbeets plant response rating [11, 31] | Barnyardgrass plant response rating [12, 32] | Barnyardgrass plant response rating [12, 33] | Barnyardgrass plant response rating [12, 34] | Barnyardgrass plant response rating [12, 35] | Cocklebur plant response rating [13, 21] | Cocklebur plant response rating [13, 22] | Cocklebur plant response rating [13, 23] | Cocklebur plant response rating [13, 24] | Cocklebur plant response rating [13, 25] | Cocklebur plant response rating [13, 27] | Cocklebur plant response rating [13, 26] | Plant response rating (0 to 10; 0 is no effect, 10 is complete control), Cocklebur ([13]; Rate 250 g/ha, Postemergence) | Wild oats plant response rating [14, 28] | Wild oats plant response rating [14, 29] | Wild oats plant response rating [14, 30] | Wild oats plant response rating [14, 31] | Rice plant response rating [15, 32] | Rice plant response rating [15, 33] | Rice plant response rating [15, 34] | Rice plant response rating [15, 35] | Bedstraw plant response rating [16, 21] | Bedstraw plant response rating [16, 22] | Bedstraw plant response rating [16, 23] | Bedstraw plant response rating [16, 24] | Bedstraw plant response rating [16, 25] | Bedstraw plant response rating [16, 27] | Bedstraw plant response rating [16, 26] | Plant response rating (0 to 10; 0 is no effect, 10 is complete control), Bedstraw ([16]; Rate 250 g/ha, Postemergence) | Giant foxtail plant response rating [17, 21] | Giant foxtail plant response rating [17, 22] | Giant foxtail plant response rating [17, 24] | Plant response rating (0 to 10; 0 is no effect, 10 is complete control), Giant foxtail ([17]; Rate 250 g/ha, Postemergence) | Soybean plant response rating [18, 28] | Soybean plant response rating [18, 29] | Soybean plant response rating [18, 30] | Soybean plant response rating [18, 31] | S. Flatsedge plant response rating [19, 32] | S. Flatsedge plant response rating [19, 33] | S. Flatsedge plant response rating [19, 34] | S. Flatsedge plant response rating [19, 35] | Morningglory plant response rating [20, 21] | Morningglory plant response rating [20, 22] | Morningglory plant response rating [20, 23] | Morningglory plant response rating [20, 26]
9: Giant foxtail plant response rating [17, 23]
4: Plant response rating (0 to 10; 0 is no effect, 10 is complete control), Redroot pigweed ([9]; Rate 250 g/ha, Postemergence)
5: Giant foxtail plant response rating [17, 26]
1: Plant response rating (0 to 10; 0 is no effect, 10 is complete control), Crabgrass ([8]; Rate 250 g/ha, Postemergence)
